From publication PMC10645073, “Interaction of gallium, indium and vanadyl diacetylcurcumin complexes with lysozyme: mechanistic aspects and evaluation of antiamyloidogenic activity” (Royal Society Open Science, 2023)
One block for each compound: values may come before it.

Assays:
[1] = target: T1, hen egg white lysozyme (HEWL) (Gallus gallus, UniProt P00698); test: Synchronous fluorescence spectroscopy of HEWL; type: binding; conditions: Δλ = 60 nm
T1 construct: whose 129 amino acid residues are linked together by four disulfide bridges to form a single polypeptide chain; purchased Sigma-Aldrich L6876; host or cells: hen egg white (natural source, per the protein's name)
Description: To obtain synchronous fluorescence spectra, simultaneous scanning of excitation and emission monochromators was performed in such a way as to maintain a constant wavelength interval between them. The changes in the molecular microenvironment of tyrosine and tryptophan residues of HEWL were monitored by fixing the wavelength interval (Δλ = λem − λex) individually at 15 and 60 nm, respectively. The concentrations of HEWL and three metal complexes of diacetylcurcumin were the same as those mentioned for the intrinsic fluorescence spectroscopy.
To investigate the effect of the metal complexes of diacetylcurcumin on the conformation of tyrosine and tryptophan residues of HEWL, synchronous fluorescence spectra of HEWL were recorded alone and in the presence of the metal complexes (electronic supplementary material, figure S5). By fixing the Δλ value, i.e. the difference between excitation and emission wavelengths, at 15 and 60 nm, synchronous fluorescence spectroscopy provides useful information on the microenvironmental changes of tyrosine and tryptophan residues of proteins, respectively. As shown in the electronic supplementary material, figure S5, all three metal complexes of diacetylcurcumin strongly quench the emission fluorescence of HEWL at both 15 and 60 nm. […] At Δλ = 15 nm, no shift in the emission maximum of HEWL is observed, whereas at Δλ = 60 nm, a 2 nm blue shift is observed in the emission spectrum of tryptophan residues of the protein after the interaction with the metal complexes of diacetylcurcumin except for the VO(DAC)2 complex. […] Overall, it can be concluded that the formation of HEWL/metal complex bioconjugates is associated with the binding of three metal complexes of diacetylcurcumin to both tyrosine and tryptophan residues in which the conformational changes can occur only around the tryptophan residues of the protein. It should be noted that the reduction in the polarity of the microregions surrounding tryptophan residues of the protein has already been observed by the intrinsic emission fluorescence titrations (see §3.1.1.).

mouse lymphoma cells = system: mouse lymphoma cells; set-up: method as in PMID 16171869; conditions: read-out: IC50 cytotoxicity; cited from earlier work
[2] = target: T1, hen egg white lysozyme (HEWL); test: Intrinsic fluorescence quenching of HEWL (Stern-Volmer, double logarithmic and van't Hoff analysis); type: binding; conditions: for KSV (Stern-Volmer quenching constant): HEWL 3 µM; for kq (bimolecular quenching rate constant): kq = KSV/τ0, τ0 10^−8 s
Description: The intrinsic fluorescence spectra of HEWL (3 µM) in the absence and presence of Ga(DAC)3, In(DAC)3 and VO(DAC)2 complexes were collected using a Varian Cary Eclipse fluorescence spectrophotometer equipped with a 10 mm quartz cell by adjusting the excitation wavelength to 295 nm and setting the width of both excitation and emission slits at 5 nm. After adding the mentioned concentrations of the metal complexes of diacetylcurcumin to HEWL solution, the samples were scanned in the wavelength range of 300–500 nm. Corrections were made for the inner filter effect on the fluorescence spectra according to the following equation: Fcor=Fobs×10^(Aex+Aem)/2, where Fcor is corrected fluorescence intensity, Fobs is the observed (uncorrected) fluorescence intensity, Aex is the absorbance at the fluorescence excitation wavelength and Aem is the absorbance at the selected fluorescence emission wavelength.
The fluorescence quenching process of HEWL in the presence of three metal complexes of diacetylcurcumin can be quantified according to the well-known Stern-Volmer equation:3.1 F0/F=1+KSV[Q]=1+kqτ0[Q],
where F0 and F represent the intrinsic emission intensities of HEWL fluorophores, respectively, in the absence and presence of the metal complexes of diacetylcurcumin, and [Q] is the molar concentration of quencher. KSV, kq and τ0 denote the Stern-Volmer quenching constant, bimolecular quenching rate constant, and the average lifetime of fluorophore without quencher, respectively. The value of KSV, as a parameter of the sensitivity of the fluorophore to a quencher, can be estimated from the slope of the linear plot of F0/F as a function of [Q] (figure 2d,e,f; electronic supplementary material, figure S1). To obtain more accurate quantification of fluorescence data, the total area of the emission fluorescence peaks (S0 and S) was applied instead of the emission fluorescence intensities (F0 and F). The fluorescence quenching phenomenon can be generally divided into two distinct classes: static quenching and dynamic quenching. Owing to the reciprocal and direct correlations between the KSV parameter and temperature, respectively, for static and dynamic quenching, the observed trend in the KSV value versus temperature can be used to distinguish these mechanisms from each other. In dynamic quenching, an increase in temperature leads to faster diffusion of molecules by which weakly bound nonfluorescent complexes are further dissociated, and the value of KSV increases. From the data recorded in table 1, it can be seen that the KSV value of HEWL/Ga(DAC)3 and HEWL/In(DAC)3 systems decreases as temperature increases, while it increases with increasing temperature for the HEWL/VO(DAC)2 system. […] Considering a lifetime value of 10^−8 s for the native fluorophores, [27] the equation kq = KSV/τ0 gives the kq values greater than the diffusion-limited quenching value of 2.0 × 10 ^+ 10 M^−1 s^−1 for all systems.
Assuming that all the binding sites of HEWL are identical and independent and an equilibrium interaction is established between HEWL and each of the metal complexes of diacetylcurcumin, the fluorescence quenching process can be further analysed by the following double logarithmic equation:3.2 log(F0−F/F)=logKb+nlog[Q], where Kb and n represent the binding constant and number of binding sites on each HEWL molecule, respectively. Plotting log[(F0 − F)/F] versus log[Q] produces a straight line whose slope and intercept can be used respectively to estimate the values of n and Kb (electronic supplementary material, figures S2A, S2B, S2C and S3). […] In other words, the resulting bioconjugates are the product of the interaction between HEWL and the metal complexes of diacetylcurcumin with a 1 : 1 stoichiometry. […]

Aβ42 = conditions: copper-induced Aβ42 cross-linking; cited from earlier work

- microenvironment of tryptophan residues of HEWL [1]: more hydrophobic
- n (number of binding sites on each HEWL molecule) ([2]; T 293 K): (0.92 ± 0.02)
- ΔG^0 (Gibbs free energy change of binding) ([2]; T 293 K): -5.081 ± 0.139 kcal/mol
- KSV (Stern-Volmer quenching constant) ([2]; T 293 K): (1.46 ± 0.02) × 10^+4 M^−1
- kq (bimolecular quenching rate constant) ([2]; T 293 K): (1.46 ± 0.02) × 10^+12 M^−1 s^−1
- n (number of binding sites on each HEWL molecule) ([2]; T 303 K): (0.80 ± 0.02)
- ΔG^0 (Gibbs free energy change of binding) ([2]; T 303 K): -5.057 ± 0.139 kcal/mol
- KSV (Stern-Volmer quenching constant) ([2]; T 303 K): (1.30 ± 0.01) × 10^+4 M^−1
- kq (bimolecular quenching rate constant) ([2]; T 303 K): (1.30 ± 0.01) × 10^+12 M^−1 s^−1
- n (number of binding sites on each HEWL molecule) ([2]; T 308 K): (0.89 ± 0.02)
- ΔG^0 (Gibbs free energy change of binding) ([2]; T 308 K): -5.045 ± 0.139 kcal/mol
- KSV (Stern-Volmer quenching constant) ([2]; T 308 K): (1.25 ± 0.01) × 10^+4 M^−1
- kq (bimolecular quenching rate constant) ([2]; T 308 K): (1.25 ± 0.01) × 10^+12 M^−1 s^−1
- blue shift of HEWL emission maximum on quenching ([2]; excitation 295 nm, emission maximum 345 nm): 4 nm
- fluorescence quenching mechanism ([2]; from KSV versus temperature and kq): static mechanism
- binding constant, order of magnitude ([2]; summary of table 1): 10^+3 M^−1
- ΔH^0 (enthalpy change of binding) ([2]; van't Hoff plot over 293–308 K): -5.817 ± 0.0406 kcal/mol
- ΔS^0 (entropy change of binding) ([2]; van't Hoff plot over 293–308 K): −10.50 ± 0.55 J mol^−1 K^−1
Compound: COc1cc(C=CC(=O)C=C([O-])C=Cc2ccc(OC(C)=O)c(OC)c2)ccc1OC(C)=O.COc1cc(C=CC(=O)C=C([O-])C=Cc2ccc(OC(C)=O)c(OC)c2)ccc1OC(C)=O.COc1cc(C=CC(=O)C=C([O-])C=Cc2ccc(OC(C)=O)c(OC)c2)ccc1OC(C)=O.[Ga+3] [Ga(DAC)3, gallium diacetylcurcumin]
- IC50 (mouse lymphoma cells): 25 to 30 µM
- main forces / modes of interaction stabilizing the bioconjugate ([2]; from signs of ΔH^0 and ΔS^0): van der Waals interactions and hydrogen bonds

Compound: CRANAD-17
- effect on Aβ amyloid formation (Aβ42): considerably reduces Aβ amyloid formation

Compound: COc1cc(C=CC(=O)CC(=O)C=Cc2ccc(O)c(OC)c2)ccc1O [curcumin, 1,7-bis(4-hydroxy-3-methoxyphenyl)-1,6-heptadiene-3,5-dione]
- IC50 (mouse lymphoma cells): 25 to 30 µM
